Data: patent publication US20180369203A1, “METHODS OF TREATING CANCER BY ADMINISTERING A MEK INHIBITOR IN COMBINATION WITH A PROTEASOME INHIBITOR” (The Jackson Laboratory, priority 2015, published 2018)

How the values were obtained:
A2058 cells [1] = assay: Amyloid quantitation by ELISA in A2058 cells pre-incubated with ThT; type: cell-based, human; conditions: 10 μM ThT pre-incubation 6 hr, then inhibitors 24 hr
Procedure: (§1) FIGS. 5A-Y show MEK and proteasome inhibition provoke protein aggregation and amyloidogenesis. (A-B) WM115 cells treated with 20 nM AZD6244, 100 nM Bortezomib, or both for 24 hr were stained with Lys48-specific ubiquitin antibodies. Arrowheads mark ubiquitin-positive aggregates. Scale bar: 10 μm. Amounts of aggregates per cell were quantitated using ImageJ (median, n≥100, ANOVA). (C-F) Following transfection with polyQ79 plasmids alone or with both polyQ79 and HSF1^S326D plasmids for one day, HEK293T cells were treated with inhibitors as described in (A-B). Cells were either analyzed for aggregate size or stained with 10 μM ThT. (G) Treated tumor cell lines were stained with 10 μM ThT. Geometric means were used to calculate fold changes in ThT fluorescence intensity and the log 2(FC) values were presented as a heat map. […] Following treatments, AOs were quantitated by ELISA using A11 antibodies (mean±SD, n=3, ANOVA). (I) Intrinsic AOs were detected in human tumor cell lines (mean±SD, n=3, ANOVA). […] Amyloids were quantitated by ELISA (mean±SD, n=3, Student's t-test). […] AF formation was monitored by ThT binding (mean±SD, n=3, ANOVA). […] Amyloids were quantitated (mean±SD, n=3, Student's t-test). […] Viable cells were quantitated by CellTiter® blue (mean±SD, n=6, Student's t-test). […] Viable cells were quantitated (mean±SD, n=6, ANOVA). […]
To quantitate amyloid fibrils, detergent-insoluble proteins were extracted. […]

A2058 cells [2] = assay: Viable A2058 cells by CellTiter Blue with amyloid blockers plus inhibitors; type: cell-based, human; conditions: 10 μM ThT pre-incubation 6 hr, then inhibitors 24 hr
Procedure: as §1
This figure is related to FIG. 5. […] (C) Quantitation of protein aggregate size. […]

SMILES: Cc1ccc2c(c1)sc(-c1ccc(N(C)C)cc1)[n+]2C.[Cl-] [ThT, Thioflavin T]
- amyloid induction by inhibitors (A2058 cells [1]): suppressed
- improvement of cellular growth and survival (A2058 cells [2]): 50%
